Where two headings read alike, the source gives them in different places.
Assays:
Recombinant human PDE5 = Recombinant human PDE5 (Homo sapiens, UniProt O76074); assay: PDE5 enzymatic assay coupled with LC/MS analysis for cGMP determination; format: biochemical
[1] = PAMPA using porcine brain lipids (BBB permeability); conditions: pig
[2] = test system: MCF-7 mammary epithelial adenocarcinoma cells; assay: MTT cytotoxicity assay; format: cell-based; conditions: MCF-7, MTT
Method: The cytotoxicity effect of compound 14a was investigated to validate its suitability as a lead compound for further drug development. The cancer cell line MCF-7 was used in an MTT assay assessing cell metabolic activity (see Supporting Information for materials and methods).
5 Cytotoxicity assay of compound 14a. The compound (0.1–100 μM) was dissolved in 20% DMSO in saline; ns = nonsignificant. […]
µM concentrations. […] The cells
MultiScreen® filter plate (cat. no. MAIPNTR10, Millipore). Sample solutions (300 µL, 50 µM, […]
at room temperature for 18 hours. Samples from the acceptor wells were collected and analyzed by HPLC (Nexera-i LC-2040C Plus, Shimadzu). Equilibrium solutions of compounds 5e, 14a, […]
HPLC. The assay was performed in triplicate. […]
used for the HPLC analysis. […]
apparent permeability (Papp) using the following equation:
P = C × ― ln 1 ― AUCa cm/s […]
this protocol, the donor volume (Vd) is 0.3 cm3, acceptor volume (Va) is 0.15 cm3, membrane

[3] = PDE5 IC50 ± SEM, compound concentration range 0.1 nM – 100 μM, substrate concentration 150 nM
[4] = read-out: % PDE5 Inhibition ± SEM
[5] = compound concentration range 0.1 nM – 100 μM, substrate concentration 150 nM, read-out: PDE5 IC50 ± SEM
[6] = compound tested at 10 μM, average of at least three independent experiments, read-out: % PDE5 Inhibition ± SEM
[7] = Papp (RSD), tested at 50 μM, 18 hours, n.d. = not detected
[8] = Papp relative to the BBB-permeable cutoff, higher than cutoff = BBB-permeable

Row | Compound | IC50 (Recombinant human PDE5; [5]) [nM] | inhibition at 10 µM (Recombinant human PDE5; [6]) [%] | further results
1 | COc1ccc(CN(C)C(=O)c2cn(CCN(C)C)c3ccc(C#N)cc23)cc1Cl.Cl [Compound 14d] | – | – | IC50 (Recombinant human PDE5; [3]): 4900 ± 680 nM; reduction of the enzymatic activity (PDE5) compared to 14a (Recombinant human PDE5; amide hydrogen replaced by methyl): 2 log unit; inhibition at 10 µM (Recombinant human PDE5; [4]): 52 ± 6.68%
2 | COc1ccc(Nc2cn(S(=O)(=O)c3ccc(C)cc3)c3ccc(C#N)cc23)cc1Cl [Compound 10] | – | 73.4 ± 7.5 | –
3 | CCCc1nn(C)c2c(=O)[nH]c(-c3cc(S(=O)(=O)N4CCN(C)CC4)ccc3OCC)nc12 [Sildenafil, sildenafil, reference compound] | – | – | inhibition at 0.01 µM (Recombinant human PDE5; [4]): 58.2 ± 2.33%
4 | COc1ccc(CNC(=O)c2cn(CCN(C)C)c3ccccc23)cc1Cl [Compound 14c] | – | – | IC50 (Recombinant human PDE5; [3]): 3650 ± 970 nM; PDE5 inhibition effect compared to compound 5e (Recombinant human PDE5; at 10 μM): about double; inhibition at 10 µM (Recombinant human PDE5; [4]): 66.1 ± 2.34%
5 | Cn1cc(CNCCN2CCOCC2)c2cc(C#N)ccc21 [Compound 5j] | – | 10.5 ± 1.69 | –
6 | Cn1cc(CNCc2ccc(Cl)c(C(F)(F)F)c2)c2cc(C#N)ccc21 [Compound 5k] | 1770 ± 390 | 73.4 ± 4.13 | –
7 | COc1ccc(CNC(=O)c2cn(CCN(C)C)c3ccc(C#N)cc23)cc1Cl [Compound 14a] | – | – | IC50 (Recombinant human PDE5; PDE5 IC50, value quoted in abstract and conclusion): 16.1 nM; IC50 (Recombinant human PDE5; [3]): 16.1 ± 7 nM; increase in biological activity (PDE5) on replacing amine with amide (Recombinant human PDE5; compared with amine analogues): 2 log unit; inhibition at 0.5 µM (Recombinant human PDE5; [4]): 101 ± 4.99%; Papp at 18 h, 50 µM [1, 7]: 2.83 ×10⁻⁶ cm/s; Papp at 18 h, 50 µM [1, 8]: > 2 ×10⁻⁶ cm/s; biologically safe up to (cytotoxicity assay) [2]: up to 100 μM; concentration showing a cytotoxic effect ([2]; after 72 h incubation, safe at all other concentrations tested (0.1–100 μM)): 100 µM
8 | Cn1cc(CNCc2ccc3c(c2)OCO3)c2cc(C#N)ccc21 [Compound 5i] | – | 23.6 ± 2.24 | –
9 | COc1ccc(NC(=O)c2cn(CCN(C)C)c3ccc(C#N)cc23)cc1Cl [Compound 14b] | – | – | IC50 (Recombinant human PDE5; [3]): 10600 ± 1990 nM; inhibition at 10 µM (Recombinant human PDE5; [4]): 47.5 ± 2.33%

More lines, main results first:

Row | IC50 (Recombinant human PDE5; [5]) [nM] | inhibition at 10 µM (Recombinant human PDE5; [6]) [%] | Compound | further results
10 | 1370 ± 300 | 86.3 ± 1.97 | COc1ccc(NCc2cn(CC3CC3)c3ccc(C#N)cc23)cc1Cl [Compound 5c] | –
11 | 2650 ± 480 | 77 ± 4.87 | COc1ccc(NCc2cn(C)c3ccc(C#N)cc23)cc1Cl [Compound 5a] | –
12 | 10400 ± 150 | 74.5 ± 1.95 | COCCn1cc(CNc2ccc(OC)c(Cl)c2)c2cc(C#N)ccc21 [Compound 5f] | –
13 | 1720 ± 720 | 99.2 ± 2.72 | COc1ccc(NCc2cn(CC(C)C)c3ccc(C#N)cc23)cc1Cl [Compound 5d] | –
14 | – | 26.2 ± 3.85 | COc1ccc(NCc2cn(CCN(C)C)c3ccc(C#N)cc23)cc1Cl [Compound 5e] | Papp at 18 h, 50 µM [1, 7]: 5.62 ×10⁻⁶ cm/s; Papp at 18 h, 50 µM [1, 8]: > 2 ×10⁻⁶ cm/s
15 | – | 54.5 ± 4.21 | COc1ccc(NCc2cn(Cc3ccncc3)c3ccc(C#N)cc23)cc1Cl [Compound 5g] | –
16 | 1250 ± 150 | 72.2 ± 1.25 | COc1ccc(CNCc2cn(C)c3ccc(C#N)cc23)cc1Cl [Compound 5h] | –
17 | 2460 ± 130 | 94.8 ± 2.58 | CCCn1cc(CNc2ccc(OC)c(Cl)c2)c2cc(C#N)ccc21 [Compound 5b] | –
